Measurements: patent publication US20250205197A1
“Also recorded” adds a separate entry of the source.

Legend:
5-HT2A receptor [1] = target: T1, 5-HT2A receptor (Mus musculus, UniProt P35363); assay: Drug-induced Head Twitch Response (HTR) in mice; assay type: in vivo; conditions: i.p. 1 mg/kg; for Head Twitch Response (HTR): 15-to-30-minute window following administration, relative to vehicle
T1 construct: tissue Charles River; host or cells: living C57BL/6-Elite mice (brain, in vivo)

5-HT1A receptor = target: T2, 5-HT1A receptor (Homo sapiens, UniProt P08908); assay: cAMP-Glo assay of 5-HT1A receptor modulation, CHO-K1/5-HT1A/Ga15 vs CHO-K1/Ga15 cells; assay type: cell-based; conditions: for 5-HT1A receptor modulation (cAMP, +5-HT1A vs −5-HT1A cultures): forskolin-stimulated cells, 20 minutes treatment; for cAMP levels with increasing ligand: +5-HT1A cells stimulated with forskolin, control ligands
T2 construct: host or cells: CHO-K1 (co-expressing Ga15)
T2 sequence (P08908 1-422): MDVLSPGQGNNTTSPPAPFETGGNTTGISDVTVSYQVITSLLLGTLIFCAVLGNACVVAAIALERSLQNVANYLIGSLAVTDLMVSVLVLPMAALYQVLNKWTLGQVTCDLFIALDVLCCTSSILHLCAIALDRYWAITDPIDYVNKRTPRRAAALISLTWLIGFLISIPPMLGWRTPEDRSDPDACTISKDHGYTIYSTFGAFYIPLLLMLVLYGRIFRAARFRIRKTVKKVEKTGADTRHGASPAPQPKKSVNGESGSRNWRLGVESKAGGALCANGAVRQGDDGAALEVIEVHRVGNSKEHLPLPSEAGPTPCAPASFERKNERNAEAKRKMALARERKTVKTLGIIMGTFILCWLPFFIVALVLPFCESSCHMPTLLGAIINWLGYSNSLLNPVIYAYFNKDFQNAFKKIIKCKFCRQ

[2] = Solubility of the salt in water
HepG2 cells = assay: PrestoBlue cell viability assay in HepG2 cells; assay type: cell-based, human; conditions: 48 hours incubation
Source text: Methanol or DMSO were used as vehicles, at concentrations 0, 0.001, 0.01, 0.1, and 1% (methanol) or 0, 0.001, 0.01, 0.1, and 1% (DMSO), respectively. […] Non-treated cells were assigned 100% viability. Bar graphs show the mean+/−SD, n=3.
Non-treated cells were assigned 100% viability. Bar graphs show the mean+/−SD, n=3.

[3] = Mouse pharmacokinetic (PK) evaluation of drug metabolism to psilocin; assay type: in vivo, C57Bl/6 mice; conditions: mice
[4] = In vitro metabolic stability and psilocin-release assays, statements covering several fractions; assay type: in vitro ADME, human
Source text: (§1) A fundamental evaluation in drug development is the assessment of absorption, distribution, metabolism, excretion, and pharmacokinetics (ADME/PK) (Eddershaw et al., 2000, Drug Discovery Today 5(9): 409-414). […] Drug stability upon exposure to human liver microsomes and liver S9 cellular fractions is a common in vitro assay to approximate in vivo, liver-based drug metabolism (Richardson et al., 2016 Drug Metabolism Letters 10:83-90). First-pass metabolism is also often approximated in vitro using intestinal microsome and cellular S9 fractions (Hatley et al., 2017, Biopharmaceuticals & Drug Disposition, 38(2):155-160). Further, it is well known that human serum, and particularly circulating serum esterases can contribute to systemic drug metabolism (Williams, F M 1987, Pharmacology and Therapeutics, 34:99-109). Many pharmacological agents are classified as prodrugs, as they undergo metabolic transformation in vivo upon administration to release the active drug compound into the systemic compartment (Zawilska J B, et al. 2013, Pharmacological Reports, 65:1-14). Psilocybin, a serotonergic psychedelic agent, is well known prodrug that is metabolized into the psychoactive product, psilocin (Dinis-Oliveira, R J 2017, Drug Metabolism Reviews, 49(1):84-91). […] Supernatants were analyzed for the presence of candidate prodrugs (parent molecule) and psilocin (the predicted metabolite) using Orbitrap LC-MS (Thermo Scientific) using previously described methods (Menéndez-Perdomo et al., 2021, J Mass Spectrom, 56: e4683). […] Assay concentrations (μM) of both parent ‘prodrug’ molecule and psilocin metabolite, as quantified through LC-MS using routine standard curve procedures, were plotted as functions of assay time (minutes). The metabolism rate (T1/2) was determined from the metabolism curve plot using the one phase decay feature of GraphPad PRISM software (Version 9.2.0). The quantity of parent prodrug at time zero was set as 100%. […]

[5] = In vitro metabolic stability assay, human AB serum; assay type: in vitro ADME; conditions: 10% human AB serum
Source text: as §1

[6] = In vitro metabolic stability assay, human liver microsomes; assay type: in vitro ADME; conditions: HLM fraction, 37° C., NADPH
Source text: as §1, with “38(2):155-160).” for “38(2):155-160). Further, it is well known that human serum, and particularly circulating serum esterases can contribute to systemic drug metabolism (Williams, F M 1987, Pharmacology and Therapeutics, 34:99-109). Many pharmacological agents are classified as prodrugs, as they undergo metabolic transformation in vivo upon administration to release the active drug compound into the systemic compartment (Zawilska J B, et al. 2013, Pharmacological Reports, 65:1-14). Psilocybin, a serotonergic psychedelic agent, is well known prodrug that is metabolized into the psychoactive product, psilocin (Dinis-Oliveira, R J 2017, Drug Metabolism Reviews, 49(1):84-91).”

[7] = In vitro metabolic stability assay, human liver S9 fractions; assay type: in vitro ADME; conditions: HLS9 fraction, 37° C., NADPH
Source text: as §1, with “38(2):155-160).” for “38(2):155-160). Further, it is well known that human serum, and particularly circulating serum esterases can contribute to systemic drug metabolism (Williams, F M 1987, Pharmacology and Therapeutics, 34:99-109). Many pharmacological agents are classified as prodrugs, as they undergo metabolic transformation in vivo upon administration to release the active drug compound into the systemic compartment (Zawilska J B, et al. 2013, Pharmacological Reports, 65:1-14). Psilocybin, a serotonergic psychedelic agent, is well known prodrug that is metabolized into the psychoactive product, psilocin (Dinis-Oliveira, R J 2017, Drug Metabolism Reviews, 49(1):84-91).”

5-HT2A receptor [8] = target: 5-HT2A receptor (Homo sapiens, UniProt P28223); assay: [3H]ketanserin radioligand competition binding assay (SPA); conditions: [3H]ketanserin competition
[9] = Stability assay in enzyme-free control buffer; assay type: in vitro ADME; conditions: negative control buffer, pH 7.4
Source text: as §1, with “38(2):155-160).” for “38(2):155-160). Further, it is well known that human serum, and particularly circulating serum esterases can contribute to systemic drug metabolism (Williams, F M 1987, Pharmacology and Therapeutics, 34:99-109). Many pharmacological agents are classified as prodrugs, as they undergo metabolic transformation in vivo upon administration to release the active drug compound into the systemic compartment (Zawilska J B, et al. 2013, Pharmacological Reports, 65:1-14). Psilocybin, a serotonergic psychedelic agent, is well known prodrug that is metabolized into the psychoactive product, psilocin (Dinis-Oliveira, R J 2017, Drug Metabolism Reviews, 49(1):84-91).”

T1 sequence (P35363 whole entry): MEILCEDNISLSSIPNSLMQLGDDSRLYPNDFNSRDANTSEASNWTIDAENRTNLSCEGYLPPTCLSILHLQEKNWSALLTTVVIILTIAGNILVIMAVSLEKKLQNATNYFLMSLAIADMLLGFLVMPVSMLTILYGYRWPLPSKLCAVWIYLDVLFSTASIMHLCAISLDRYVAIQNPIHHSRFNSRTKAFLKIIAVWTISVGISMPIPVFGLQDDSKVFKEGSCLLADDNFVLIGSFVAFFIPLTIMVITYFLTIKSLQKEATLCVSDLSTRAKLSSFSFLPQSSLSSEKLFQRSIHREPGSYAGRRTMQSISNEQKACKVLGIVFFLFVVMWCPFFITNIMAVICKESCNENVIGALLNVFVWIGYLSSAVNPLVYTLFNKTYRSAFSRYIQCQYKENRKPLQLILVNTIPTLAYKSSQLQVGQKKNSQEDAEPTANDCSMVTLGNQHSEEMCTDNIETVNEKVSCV
Sequence of 5-HT2A receptor (Homo sapiens, UniProt P28223) (P28223 whole entry): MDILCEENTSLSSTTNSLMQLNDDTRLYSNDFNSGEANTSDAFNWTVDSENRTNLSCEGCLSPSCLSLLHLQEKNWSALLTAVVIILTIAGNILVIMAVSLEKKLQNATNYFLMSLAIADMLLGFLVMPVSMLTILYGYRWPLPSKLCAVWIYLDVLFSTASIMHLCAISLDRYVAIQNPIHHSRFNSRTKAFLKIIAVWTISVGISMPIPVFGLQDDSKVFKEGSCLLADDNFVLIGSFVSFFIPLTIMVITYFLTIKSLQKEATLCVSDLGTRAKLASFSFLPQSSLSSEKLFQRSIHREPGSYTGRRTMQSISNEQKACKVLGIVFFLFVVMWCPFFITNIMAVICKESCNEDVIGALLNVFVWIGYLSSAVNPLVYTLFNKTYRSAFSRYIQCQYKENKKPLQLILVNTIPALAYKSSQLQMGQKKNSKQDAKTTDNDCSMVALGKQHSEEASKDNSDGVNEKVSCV

CN(C)CCc1c[nH]c2cccc(OC(=O)c3c(F)c(F)c(F)c(F)c3F)c12 [C(VI)]
Head Twitch Response (HTR) (5-HT2A receptor [1]): Elevated incidences of HTR | 5-HT1A receptor modulation (cAMP, +5-HT1A vs −5-HT1A cultures) (5-HT1A receptor): no receptor modulation at higher ligand concentrations

COC(=O)c1cccc(C(=O)Oc2cccc3[nH]cc(CCN(C)C)c23)c1 [C(XLIII)]
5-HT1A receptor modulation (cAMP, +5-HT1A vs −5-HT1A cultures) (5-HT1A receptor): receptor modulation at higher ligand concentrations

CN(C)CCc1c[nH]c2cccc(OC(=O)SCc3ccccc3)c12.Cl [E(VIa1)]
solubility in water [2]: ≥ 10 mg per mL

CN(C)CCc1c[nH]c2cccc(OC(=O)c3cccc4c3OCCO4)c12 [C(XX)]
Head Twitch Response (HTR) (5-HT2A receptor [1]): Elevated incidences of HTR | 5-HT1A receptor modulation (cAMP, +5-HT1A vs −5-HT1A cultures) (5-HT1A receptor): significant receptor modulation

COc1ccc(C(=O)Oc2cccc3[nH]cc(CCN(C)C)c23)cc1 [C(V)]
Head Twitch Response (HTR) (5-HT2A receptor [1]): Elevated incidences of HTR | 5-HT1A receptor modulation (cAMP, +5-HT1A vs −5-HT1A cultures) (5-HT1A receptor): mild receptor modulation at higher ligand concentrations

CN(C)CCc1c[nH]c2cccc(OC(=O)OCc3ccccc3)c12 [B(II)]
CD50 (cytotoxicity, cell viability) (HepG2 cells): 65.9 µM | time the derivative resides in plasma post-dosing ([3]; oral 10 mg/kg): up to 4 hours | dissociation to psilocin ([4]; HLM, HLS9, HIM, HIS9, AB serum, buffer control): did not readily dissociate to psilocin under any conditions | stability / dissociation to psilocin in serum [5]: failed completely to dissociate | Head Twitch Response (HTR) (5-HT2A receptor [1]): elicit head twitching

CN(C)CCc1c[nH]c2cccc(OC(=O)CC3CC3)c12 [C(IV)]
Head Twitch Response (HTR) (5-HT2A receptor [1]): Elevated incidences of HTR | 5-HT1A receptor modulation (cAMP, +5-HT1A vs −5-HT1A cultures) (5-HT1A receptor): significant receptor modulation

COc1ccc(C(=O)Oc2cccc3[nH]cc(CCN(C)C)c23)cc1 [C(Va1)]
solubility in water [2]: ≥ 10 mg per mL

COc1ccc(C(=O)Oc2cccc3[nH]cc(CCN(C)C)c23)cc1.O=C(O)C(O)C(O)C(=O)O [C(Va2)]
solubility in water [2]: ≥ 10 mg per mL

NCCc1c[nH]c2ccc(O)cc12 [serotonin, reference compound]
cAMP levels with increasing ligand (5-HT1A receptor): reduction in cAMP levels

CN(C)CCc1c[nH]c2cccc(OC(=O)SCc3ccccc3)c12 [E(VI)]
detection of the derivative in plasma ([3]; oral 1 mg/kg): neither B(II) nor E(VI) were detected in plasma | detection of the derivative in plasma ([3]; oral 3 mg/kg and 10 mg/kg): never detected at any timepoint | half-life (T1/2) [6]: 6 min | conversion to psilocin ([4]; liver fractions and serum): quickly converted to psilocin in liver fractions and serum | half-life (T1/2) [7]: 5 min | stability / dissociation to psilocin in serum [5]: nearly completely disappears | Head Twitch Response, E(VI) compared to B(II) (5-HT2A receptor [1]): elevated response | Head Twitch Response (HTR) (5-HT2A receptor [1]; 1 mg/kg): Elevated incidences of HTR; also recorded: elicit head twitching | 5-HT1A receptor modulation (cAMP, +5-HT1A vs −5-HT1A cultures) (5-HT1A receptor): mild receptor modulation at higher ligand concentrations

CN(C)CCc1c[nH]c2cccc(O)c12 [psilocin, reference compound]
competition binding at 5-HT2A (controls, in words) (5-HT2A receptor [8]): binding | cAMP levels with increasing ligand (5-HT1A receptor): reduction in cAMP levels

CN(C)CCc1c[nH]c2cccc(OC(=O)c3cccc(C(=O)Oc4cccc5[nH]cc(CCN(C)C)c45)c3)c12 [C(VII)]
Head Twitch Response (HTR) (5-HT2A receptor [1]): Elevated incidences of HTR | 5-HT1A receptor modulation (cAMP, +5-HT1A vs −5-HT1A cultures) (5-HT1A receptor): no significant receptor modulation

CN(C)CCc1c[nH]c2cccc(OP(=O)(O)O)c12 [psilocybin]
stability / conversion to psilocin in liver fractions ([4]; liver fractions (HLM, HLS9)): stable in liver fractions with no conversion to psilocin | stability / dissociation to psilocin in serum [5]: stable in serum with no conversion to psilocin | stability in assay buffer [9]: stability of psilocybin was confirmed in assay buffer

N[C@@H](Cc1c[nH]c2ccccc12)C(=O)O [tryptophan, reference compound]
competition binding at 5-HT2A (controls, in words) (5-HT2A receptor [8]): no binding | cAMP levels with increasing ligand (5-HT1A receptor): no reduction in cellular cAMP levels

COCCOCCOCC(=O)Oc1cccc2[nH]cc(CCN(C)C)c12 [C(III)]
Head Twitch Response (HTR) (5-HT2A receptor [1]): Elevated incidences of HTR | 5-HT1A receptor modulation (cAMP, +5-HT1A vs −5-HT1A cultures) (5-HT1A receptor): significant receptor modulation

CN(C)CCc1c[nH]c2cccc(OC(=O)c3ccc(Br)cc3)c12 [C(I)]
Head Twitch Response (HTR) (5-HT2A receptor [1]): Elevated incidences of HTR | 5-HT1A receptor modulation (cAMP, +5-HT1A vs −5-HT1A cultures) (5-HT1A receptor): mild receptor modulation at higher ligand concentrations

COc1ccc(C(=O)Oc2cccc3[nH]cc(CCN(C)C)c23)cc1 [C(Vb1)]
solubility in water [2]: < 1 mg in a mL

CN(C)CCc1c[nH]c2cccc(OC(=O)SCc3ccccc3)c12 [E(VIb1)]
solubility [2]: > 10000 µg/mL
